Test system: Normal human adipocytes
Test: lipid synthesis in suspended adipocytes (incorporation of radio-labelled acetate)
Assay type: cell-based
Details: 10 μM; reference molecule, inhibitor of FAS
Description: Normal human adipocytes were isolated from abdominal biopsies (plastic surgery). Immediately after receipt, the samples were incubated for 30 min at 37° C. in the presence of collagenase (Sigma). The suspension of adipocytes is then rinsed and diluted 3 times in the culture medium.
Culture medium: bicarbonate (Life Technologies) 1.87 mg/ml, penicillin/streptomycin (Life Technologies) 25 IU/ml/25 μg/ml, glutamine (Life Technologies) 2 mM, MEM (Merck Eurolab) 100% v/v, albumin of bovine origin (Sigma) 0.5% w/v.
The suspended adipocytes are incubated for 1 h at 37° C. in the presence of different concentrations of MA105 (20 and 2 ppm) diluted in THF (tetrahydrofurane). A […] volume of radio-labelled acetate (2-C^14, 60.87 μCi/ml, Amersham) is then added to the preparation. After 4 hrs of incubation, the lipids are extracted according to the procedure described by Bligh and Dyer (methanol/chloroform/water), evaporated under nitrogen and the incorporated radioactivity was quantitated by liquid scintillation (LKB 1210 Rackbeta).

SMILES: C/C=C/C/C=C/CCC(=O)[C@H]1O[C@H]1C(N)=O [ceruline]
- inhibition of the incorporation of acetate: 75 % inhibition/control
